According to patent US20260276636A1, “METHOD FOR SPECIFIC AND RAPID QUANTIFICATION OF THE TOTAL VIABLE BACTERIAL COUNT IN RAW MILK” (National Institute of Metrology, priority 2023, published 2026):

Experiments:
S. aureus = test: Minimum inhibitory concentration (MIC) assay; assay type: cell-based, Staphylococcus aureus; conditions: 96-well plate, 37° C., 48 h; ATCC 29213
Description: (§1) • 1. Culture of bacterial strains. After the four bacterial strains were activated on a nutrient agar plate, a single colony was picked, inoculated to TSB medium (10 g/L peptone, 3 g/L beef extract powder, and 5 g/L sodium chloride), incubated at 37° C. for 6 h to the mid-logarithmic stage, and then centrifuged at 8000 rpm for 5 min to collect the bacterial cells. The collected bacterial cells were suspended in fresh TSB medium at a bacterial suspension concentration of approximately 10^7 cells/mL. • 2. Antibiotics. […] Antibiotics were purchased from Shanghai Yuanye Biotechnology Co., Ltd. An appropriate amount of antibiotics was weighed and dissolved in DSMO to prepare a stock solution of a cell division inhibitor, which was stored in the dark at −20° C. • 3. Minimum inhibitory concentration (MIC) assay. The above four bacterial suspensions were plated in a 96-well plate, to which antibiotics were added at final concentrations of […], and then incubated at 37° C. for 48 h. Bacterial growth was analyzed using a microplate reader, and the smallest concentration of antibiotics that could inhibit the growth of bacteria was defined as the minimum inhibitory concentration. • 4. Evaluation of inhibitory effect on bacterial division. […] After centrifugation at 8000 rpm, the bacterial cells were collected and resuspended in the PBS buffer, and the changes in the number of bacteria in the sample were analyzed using the forward scatter signals on the flow cytometer. • 5. Detection of bacterial viability. […] SYTO9 labeled all bacteria in green and PI labeled dead bacteria in red. The above labeling system was left at room temperature for 30 min in the dark, washed and centrifuged with PBS twice, and the percentages of viable and dead bacteria were analyzed using a flow cytometer. Measurement and analysis were performed using an Apogee A50 flow cytometer. At an excitation wavelength of 488 nm, a flow rate of 3-25 μL/min and a detection time of 10-100 s, the total number of bacteria was analyzed in the green fluorescence channel, and the number of dead bacteria was analyzed in the red fluorescence channel.

E. coli [1] = test: Minimum inhibitory concentration (MIC) assay; assay type: cell-based, Escherichia coli; conditions: 96-well plate, 37° C., 48 h; ATCC 10798
Description: as §1

L. lactis [2] = test: Minimum inhibitory concentration (MIC) assay; assay type: cell-based, Lactococcus lactis; conditions: 96-well plate, 37° C., 48 h; ATCC 19257
Description: as §1

[3] = test system: four species of bacteria (B. subtilis, E. coli, S. aureus, L. lactis); test: Evaluation of inhibitory effect on bacterial division (flow cytometry); assay type: cell-based; conditions: 1 μg/mL, 2 h of treatment, compared to blank control; FIG. 7
Description: (§2) • 1. Culture of bacterial strains. After the four bacterial strains were activated on a nutrient agar plate, a single colony was picked, inoculated to TSB medium (10 g/L peptone, 3 g/L beef extract powder, and 5 g/L sodium chloride), incubated at 37° C. for 6 h to the mid-logarithmic stage, and then centrifuged at 8000 rpm for 5 min to collect the bacterial cells. The collected bacterial cells were suspended in fresh TSB medium at a bacterial suspension concentration of approximately 10^7 cells/mL. • 2. Antibiotics. […] Bacterial growth was analyzed using a microplate reader, and the smallest concentration of antibiotics that could inhibit the growth of bacteria was defined as the minimum inhibitory concentration. • 4. […] After centrifugation at 8000 rpm, the bacterial cells were collected and resuspended in the PBS buffer, and the changes in the number of bacteria in the sample were analyzed using the forward scatter signals on the flow cytometer. • 5. […] The above labeling system was left at room temperature for 30 min in the dark, washed and centrifuged with PBS twice, and the percentages of viable and dead bacteria were analyzed using a flow cytometer. […]

B. subtilis = test: Minimum inhibitory concentration (MIC) assay; assay type: cell-based, Bacillus subtilis; conditions: 96-well plate, 37° C., 48 h; ATCC 6633
Description: as §1

[4] = test system: four species of bacteria (B. subtilis, E. coli, S. aureus, L. lactis); test: Labeling efficiency by flow cytometry; assay type: cell-based
Description: (§3) • 1. Staphylococcus aureus (Deposit number: ATCC 29213), Escherichia coli (Deposit number: ATCC 10798), Lactococcus lactis (Deposit number: ATCC 19257), and Bacillus subtilis (Deposit number: ATCC 6633). The four bacterial strains are the dominant bacteria or the important indicator and pathogenic bacteria in raw milk. • 2. […] Labeling method. […] Fluorescence microscopy observation method. […] 10 μL of bacterial suspension was added onto a slide to prepare an observation sample, which was observed using a 100× oil lens and FITC fluorescence channel. Brightfield images and fluorescence field images were recorded separately. • 5. Flow cytometry. […] Optimization of labeling conditions.

[5] = test system: B. subtilis, E. coli, S. aureus, and L. lactis; test: Fluorescence microscopy observation of FADA-labeled bacteria; assay type: cell-based; conditions: 300 μM, 37° C., 6 h; FIG. 1
Description: as §3, with “The sample not incubated with FADA was used as the negative control.” for “Optimization of labeling conditions.”

E. coli [6] = test: Fluorescent labeling in presence of bacterial cell division inhibitor (flow cytometry); assay type: cell-based, Escherichia coli; conditions: 500 μM, 2 h, with bacterial cell division inhibitor, FIG. 8
Excerpt: (§4) • 1. Culture of bacterial strains. […] Fluorescent labeling with FADA. […] Fluorescent labeling with FADAA (Amino FADA).

[7] = test system: Cow-derived fresh Leukocytes; test: Specific labeling in mixed samples, fluorescence microscopy; assay type: cell-based; conditions: 500 μM, 37° C., 6 h, mixed with S. aureus; FIG. 6
Description: (§5) • 1. Activation of bacterial strain. After Staphylococcus aureus was activated on a nutrient agar plate, a single colony was picked, inoculated to TSB medium (10 g/L peptone, 3 g/L beef extract powder, and 5 g/L sodium chloride), incubated at 37° C. for 6 h to the mid-logarithmic stage, and then centrifuged at 8000 rpm for 5 min to collect the bacterial cells. The collected bacterial cells were suspended in fresh TSB medium at a bacterial suspension concentration of approximately 10^7 cells/mL. • 2.

Staphylococcus aureus [8] = test: as above; assay type: cell-based; conditions: 500 μM, 37° C., 6 h, mixed with yeast or cow leukocytes; FIG. 6
Description: as §5

Saccharomyces cerevisiae = test: as above; assay type: cell-based; conditions: 500 μM, 37° C., 6 h, mixed with S. aureus; FIG. 6
Description: as §5

L. lactis [9] = test: Fluorescent labeling in presence of bacterial cell division inhibitor (flow cytometry); assay type: cell-based, Lactococcus lactis; conditions: 500 μM, 2 h, with bacterial cell division inhibitor, FIG. 8
Excerpt: as §4

Staphylococcus aureus [10] = conditions: 2 h
Description: as §2

Row | Compound | Resistance to quinolone antibiotics (MIC), S. aureus (S. aureus) | Resistance to quinolone antibiotics (MIC), E. coli (E. coli [1]) | Resistance to quinolone antibiotics (MIC), L. lactis (L. lactis [2]) | Inhibition of cell division of the four species of bacteria [3] | Resistance to quinolone antibiotics (MIC), B. subtilis (B. subtilis) | labeling efficiency ([4]; 300 μM, 37° C., 6 h, FIG. 2) | labeling efficiency ([4]; 500 μM, 4 h, FIG. 3) | Fluorescent labeling of bacterial cells under fluorescence microscope [5] | labeling effect (labeling efficiency) (E. coli [6]) | Fluorescent labeling of somatic cells (cow leukocytes) in mixed sample [7] | Fluorescent labeling of S. aureus in mixed samples (Staphylococcus aureus [8]) | Fluorescent labeling of yeast in mixed sample (Saccharomyces cerevisiae) | labeling effect (labeling efficiency) (L. lactis [9]) | bacterial viability after antibiotic treatment (Staphylococcus aureus [10])
1 | O=C(O)c1cn(C2CC2)c2cc(N3CCNCC3)c(F)cc2c1=O [Ciprofloxacin, ciprofloxacin] | 1 µg/mL | 0.5 µg/mL | 1 µg/mL | efficient inhibition of cell division | 1 µg/mL |  |  |  |  |  |  |  |  | 
2 | C[C@H]1COc2c(N3CCN(C)CC3)c(F)cc3c(=O)c(C(=O)O)cn1c23 [Levofloxacin, levofloxacin] | <0.25 µg/mL | <0.25 µg/mL | 0.5 µg/mL |  | 2 µg/mL |  |  |  |  |  |  |  |  | 
3 | Carboxyfluorescein-labeled amino-D-alanine [FADA] |  |  |  |  |  | > 98.5% | more than 98.5% | all cells in the field of view were found fluorescently labeled | 81.6% | not labeled | fluorescently labeled | not labeled | 57.1% | 
4 | CCn1cc(C(=O)O)c(=O)c2ccc(C)nc21 [Nalidixic acid, nalidixic acid] | 64 µg/mL | 4 µg/mL | >256 µg/mL |  | 128 µg/mL |  |  |  |  |  |  |  |  | 
5 | COc1c(N2C[C@@H]3CCCN[C@@H]3C2)c(F)cc2c(=O)c(C(=O)O)cn(C3CC3)c12 [Moxifloxacin, moxifloxacin] | 4 µg/mL | 1 µg/mL | 2 µg/mL |  | 8 µg/mL |  |  |  |  |  |  |  |  | 88.1%
